Measurements: patent US5486518A, “4-indolylpiperazinyl derivatives” (American Home Products Corporation, priority 1995, dated 1996)

These molecules were tested against T1, serotonin 5-HT1 A receptor (Rattus norvegicus, UniProt P19327) (assay: displacement of [^3 H]8-OHDPAT from the 5-HT1 A serotonin receptors in rat hippocampal membrane homogenate).
T1 construct: rat hippocampal membrane homogenate; from tissue; host or cells: rat hippocampus (membrane homogenate)
T1 sequence (P19327 1-422): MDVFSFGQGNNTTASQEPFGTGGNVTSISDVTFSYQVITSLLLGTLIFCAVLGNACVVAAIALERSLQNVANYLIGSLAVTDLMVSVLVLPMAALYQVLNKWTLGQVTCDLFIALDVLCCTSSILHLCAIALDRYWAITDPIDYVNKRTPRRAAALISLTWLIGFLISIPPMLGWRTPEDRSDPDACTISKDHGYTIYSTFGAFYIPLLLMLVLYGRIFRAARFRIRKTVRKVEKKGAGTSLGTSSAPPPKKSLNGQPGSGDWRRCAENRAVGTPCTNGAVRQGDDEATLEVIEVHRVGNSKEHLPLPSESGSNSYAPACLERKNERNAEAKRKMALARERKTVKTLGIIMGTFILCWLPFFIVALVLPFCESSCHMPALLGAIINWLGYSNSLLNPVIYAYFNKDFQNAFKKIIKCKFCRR
Assay type: binding
Source text: High affinity for the serotonin 5-HT1 A receptor was established by testing the claimed compound's ability to displace [^3 H]8-OHDPAT (dipropylaminotetralin) from the 5-HT1 A serotonin receptors in rat hippocampal membrane homogenate following the procedure of B. S. Alexander and M. D. Wood, J. Pharm. Pharmacol. 1988, 40, 888-891.

Row | SMILES | IC50 [nM]
1 | CC(=O)N[C@@H](CN1CCN(c2cccc3[nH]ccc23)CC1)c1ccccc1 [Example 2] | 35.5
2 | O=C(N[C@@H](CN1CCN(c2cccc3[nH]ccc23)CC1)c1ccccc1)c1ccccc1 [Example 3] | 5
3 | O=C(N[C@H](Cc1ccccc1)CN1CCN(c2cccc3[nH]ccc23)CC1)C1CCCCC1 [Example 4, (R)- Cyclohexane Carboxylic Acid 1-Phenylmethyl-2-[1-[4-(4-indolyl)piperazinyl]] ethylamide] | 8.3
4 | O=C(N[C@@H](CN1CCN(c2cccc3[nH]ccc23)CC1)c1ccccc1)C1CCCCC1 [Example 1] | 2
